# Results as given in patent publication US20230028414A1, “DOSING REGIMEN OF KRAS G12C INHIBITOR” (AMGEN INC., priority 2019, published 2023).
# Tests used:
# [1] = Phase 1 pharmacokinetics of Compound A at 960 mg once daily; assay type: in vivo, human; conditions: patients
# [2] = tested on: other tumor types (appendiceal cancer, unknown primary cancer); assay: Phase 1 tumor response by RECIST 1.1, patients with other tumor types; assay type: in vivo, human; conditions: 2 evaluable patients with appendiceal cancer
# Text: A complete response (CR) is disappearance of all target lesions and any pathological lymph nodes have a reduction in short axis to less than 10 mm. A partial response (PR) is at least a 30% decrease in the sum of diameters of target lesions, taking as reference the baseline sum diameters. A progressive disease is at least a 20% increase in the sum of diameters of target lesions, taking as reference the smallest sum on study (including the baseline sum if that is the smallest on study), and there must be an absolute increase of at least 5 mm in addition to the relative increase of 20%. A stable disease is neither sufficient shrinkage to qualify for PR nor sufficient increase to qualify for PD. […] The tumor size can be measured by radiographic scan.
# FIG. 2. […] Target lesions are measurable lesions defined by RECIST 1.1. Non-measurable lesions, as defined by RECIST 1.1, are considered non-target lesions. A PR is defined as at least a 30% decrease in the sum of the diameters of target lesions using the baseline sum of diameters as a reference. […]
# As of the data cutoff of Jul. […] The tumor types of two patients were re-classified after the cutoff: 1 patient who was initially recorded as having NSCLC had unknown primary cancer, and 1 patient who was initially recorded as having other tumor types had NSCLC. […]
# Tumor response was evaluated using RECIST 1.1. […]
# [3] = Phase 1 safety and treatment exposure, all enrolled patients; assay type: in vivo
# Text: A subject undergoing a therapy is monitored for adverse events (AE) during the course of the therapy. A treatment related AE is an AE that is related to the treatment drug. A treatment emergent AE is one that a subject develops undergoing the treatment that was not present prior to start of therapy. In some cases, the treatment emergent AE is not or suspected not to be related to the treatment itself. AEs are characterized as one of five grades—grade 1 is a mile AE; grade 2 is a moderate AE; grade 3 is a severe AE; grade 4 is a life-threatening or disabling AE; and grade 5 is death related to AE.
# The grading of AEs is based on the guidelines provided in the CTCAE version 5.0. AEs for DLT assessment:
# Hematological toxicity: Febrile neutropenia; Neutropenic infection; Grade 4 neutropenia; Grade≥3 thrombocytopenia for>7 days; Grade 3 thrombocytopenia with grade≥2 bleeding; Grade 4 thrombocytopenia; Grade 4 Anemia Non-hematological toxicity Grade≥4, vomiting or diarrhea; Grade 3 diarrhea or grade 3 vomiting lasting more than 3 days despite optimal medical support; Grade≥3 nausea for 3 days or more despite optimal medical support; Any other grade≥3 AE
# [4] = tested on: KRAS p.G12C tumors; assay: Preclinical anti-tumor efficacy; assay type: in vivo; conditions: immune-competent mice
# Text: KRAS is the most frequently mutated oncogene in human cancer and encodes a key signaling protein in tumors.
# [5] = 76 enrolled patients, all doses
structure (smiles),measurement,setting,value
"C=CC(=O)N1CCN(c2nc(=O)n(-c3c(C)ccnc3C(C)C)c3nc(-c4c(O)cccc4F)c(F)cc23)[C@@H](C)C1 [Compound A, 4-((S)-4-acryloyl-2-methylpiperazin-1-yl)-6-fluoro-7-(2-fluoro-6-hydroxyphenyl)-1-(2-isopropyl-4-methylpyridin-3-yl)pyrido[2,3-d]pyrimidin-2(1H)-one]",24-hour area under the curve,[1],65300 ng·h/mL
same,time of peak exposure after administration,[1],around 2 hours
same,tumor response,[2],PR (unconfirmed) and SD
same,deaths related to treatment,[3]; 7 deaths among 76 enrolled patients,none
same,patients with treatment-related grade 3 AEs,[3]; [5],7 patients
same,"patients with treatment-related grade 3 AEs, percent",[3]; [5],9.2%
same,tolerability,[3]; consistent across all doses,well tolerated with mild treatment-related toxicities
same,treatment-related AEs higher than grade 3 or cumulative toxicities,"[3]; extended treatment, all doses",no treatment-related AEs higher than grade 3 or cumulative toxicities were observed
same,anti-tumor effect in combination with immune checkpoint inhibition,[4],durable cures
